The subject of experiment [1] is K562 cells. Kind of experiment: Cytotoxicity of dasatinib in proliferating vs quiescent K562 cells (FIG. 3). It is filed as cell-based. The settings on record: Homo sapiens.
Experiment [2] relates to quiescent K562 cultures. The settings on record: concentrations readily achievable in the clinic.
Experiment [3] concerns K562 cells. Kind of experiment: cells. The following applies: Homo sapiens, colony formation.

Structures are written as SMILES.

In general, IC50 refers to the point on the concentration scale where inhibition reaches its midpoint. Higher therefore signals weaker potency. On to `Cc1nc(Nc2ncc(C(=O)Nc3c(C)cccc3Cl)s2)cc(N2CCN(CCO)CC2)n1` [dasatinib, ′N-(2-Chloro-6-methylphenyl)-2-[[6-[4-(2-hydroxyethyl)-1-piperazinyl]-2-methyl-4-pyrimidinyl]amino]-5-thiazolecarboxamide], for which the IC50 in experiment [1] (K562, proliferating K562 cells (FIG. 3)) is 0.69 nM; in experiment [1] (K562, quiescent K562 cells (FIG. 3)), > 11.2 nM; in experiment [3] (K562, proliferating K562 cells) it was < 1 nM; in experiment [3] (K562, quiescent K562 cultures (nutrient depletion)), > 12 nM. The “% cell kill” value in experiment [2] is listed as 0%.

Source of the values: patent US20060235006A1, “Combinations, methods and compositions for treating cancer” (priority 2005, published 2006).
